Data reported in PubChem BioAssay (NCI).
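1) Cells in 96-well plates. 2) Compound, 48 h, 5 concentrations. 3) Linear interpolation between surrounding doses. 4) Unreached endpoint = highest concentration. GI50 is the concentration that inhibits growth by half. TGI denotes the concentration required for complete inhibition of growth.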

Legend:
Experiment in all cases: inhibition of tumour cell growth, NCI panel, 48 h
[1] = tested on: 786-0 renal
[2] = tested on: A498 renal
[3] = tested on: A549 NSCLC
[4] = tested on: ACHN renal
[5] = tested on: CAKI-1 renal
[6] = tested on: CCRF-CEM leukemia
[7] = tested on: DLD-1 colon
[8] = tested on: EKVX NSCLC
[9] = tested on: HCC-2998 colon
[10] = tested on: HCT-116 colon
[11] = tested on: HCT-15 colon
[12] = tested on: HOP-18 NSCLC
[13] = tested on: HOP-62 NSCLC
[14] = tested on: HT29 colon
[15] = tested on: K-562 leukemia
[16] = tested on: KM12 colon
[17] = tested on: KM20L2 colon
[18] = tested on: LXFL 529 NSCLC
[19] = tested on: M14 melanoma
[20] = tested on: MALME-3M melanoma
[21] = tested on: MOLT-4 leukemia
[22] = tested on: NCI-H23 lung
[23] = tested on: NCI-H460 lung
[24] = tested on: NCI-H522 lung
[25] = tested on: OVCAR-3 ovarian
[26] = tested on: OVCAR-4 ovarian
[27] = tested on: OVCAR-5 ovarian
[28] = tested on: OVCAR-8 ovarian
[29] = tested on: RPMI-8226 leukemia
[30] = tested on: SF-268 CNS
[31] = tested on: SF-295 CNS
[32] = tested on: SF-539 CNS
[33] = tested on: SK-MEL-2 melanoma
[34] = tested on: SK-MEL-28 melanoma
[35] = tested on: SK-MEL-5 melanoma
[36] = tested on: SN12C renal
[37] = tested on: SNB-19 CNS
[38] = tested on: SNB-75 CNS
[39] = tested on: SNB-78 CNS
[40] = tested on: SW-620 colon
[41] = tested on: TK-10 renal
[42] = tested on: U251 CNS
[43] = tested on: UACC-257 melanoma
[44] = tested on: UO-31 renal
[45] = tested on: XF 498 CNS
[46] = tested on: HOP-92 NSCLC
[47] = tested on: IGROV1 ovarian
[48] = tested on: LOX IMVI melanoma
[49] = tested on: M19-MEL melanoma
[50] = tested on: NCI-H226 lung
[51] = tested on: RXF 393 renal
[52] = tested on: SK-OV-3 ovarian
[53] = tested on: SR leukemia
[54] = tested on: UACC-62 melanoma

## COc1ccc2ccnc(Cc3ccc(OCc4ccccc4)c(OC)c3)c2c1
[1]
  TGI: 44.5 µM
[2]
  TGI: 54.5 µM
[3]
  TGI: 79.5 µM
[4]
  TGI: 76.3 µM
[5]
  TGI: > 100 µM
[6]
  TGI: 83.6 µM
[7]
  TGI: > 100 µM
[8]
  TGI: 42.7 µM
[9]
  TGI: 38.4 µM
[10]
  TGI: 29.7 µM
[11]
  TGI: 44.9 µM
[12]
  TGI: 62.5 µM
[13]
  TGI: 35.3 µM
[14]
  TGI: > 100 µM
[15]
  TGI: > 100 µM
[16]
  TGI: 37.1 µM
[17]
  TGI: > 100 µM
[18]
  TGI: 80.6 µM
[19]
  TGI: 33.2 µM
[20]
  TGI: 33.9 µM
[21]
  TGI: 46.6 µM
[22]
  TGI: 53 µM
[23]
  TGI: 37.8 µM
[24]
  TGI: 72.7 µM
[25]
  TGI: 34.2 µM
[26]
  TGI: 34 µM
[27]
  TGI: > 100 µM
[28]
  TGI: 43.5 µM
[29]
  TGI: 65.3 µM
[30]
  TGI: 70.3 µM
[31]
  TGI: 68.1 µM
[32]
  TGI: 32.3 µM
[33]
  TGI: 39.7 µM
[34]
  TGI: 33.4 µM
[35]
  TGI: 29.9 µM
[36]
  TGI: 29.8 µM
[37]
  TGI: > 100 µM
[38]
  TGI: 76.7 µM
[39]
  TGI: 67.6 µM
[40]
  TGI: > 100 µM
[41]
  TGI: 93.2 µM
[42]
  TGI: 44.6 µM
[43]
  TGI: 44.7 µM
[44]
  TGI: 19.8 µM
[45]
  TGI: 31.2 µM

## O=C1C(C(Nc2ccccc2)c2ccccc2)=C([O-])c2ccccc21.O=C1C(C(Nc2ccccc2)c2ccccc2)=C([O-])c2ccccc21.[Ni+2] (stereo not drawn)
[2]
  GI50: 7.57 µM
  TGI: > 100 µM
[3]
  GI50: 4.17 µM
  TGI: > 100 µM
[4]
  GI50: 7.81 µM
  TGI: > 100 µM
[5]
  GI50: 28.8 µM
  TGI: > 100 µM
[6]
  GI50: 3.96 µM
  TGI: > 100 µM
[7]
  GI50: 4.2 µM
  TGI: > 100 µM
[8]
  GI50: 3.33 µM
  TGI: 9.82 µM
[9]
  GI50: 4.41 µM
  TGI: > 100 µM
[10]
  GI50: 3.05 µM
  TGI: > 100 µM
[11]
  GI50: 4.09 µM
  TGI: > 100 µM
[12]
  GI50: 31.1 µM
  TGI: > 100 µM
[13]
  GI50: 14.2 µM
  TGI: > 100 µM
[46]
  GI50: 6.14 µM
  TGI: 55.6 µM
[14]
  GI50: 4 µM
  TGI: > 100 µM
[47]
  GI50: 4.9 µM
  TGI: > 100 µM
[15]
  GI50: 3.59 µM
  TGI: > 100 µM
[16]
  GI50: 4.01 µM
  TGI: > 100 µM
[17]
  GI50: 24.4 µM
  TGI: 77.7 µM
[48]
  GI50: 5.81 µM
  TGI: > 100 µM
[19]
  GI50: 7.99 µM
  TGI: > 100 µM
[49]
  GI50: 11 µM
  TGI: > 100 µM
[20]
  GI50: 7.91 µM
  TGI: > 100 µM
[21]
  GI50: 3.71 µM
  TGI: > 100 µM
[50]
  GI50: 17.9 µM
  TGI: > 100 µM
[22]
  GI50: 5.23 µM
  TGI: > 100 µM
[23]
  GI50: 4.46 µM
  TGI: > 100 µM
[25]
  GI50: 22.2 µM
  TGI: 66.4 µM
[26]
  GI50: 16.5 µM
  TGI: > 100 µM
[27]
  GI50: 3.55 µM
  TGI: 49.5 µM
[28]
  GI50: 4.43 µM
  TGI: > 100 µM
[51]
  GI50: 4.9 µM
  TGI: 85 µM
[30]
  GI50: 3.35 µM
  TGI: > 100 µM
[31]
  GI50: 3.69 µM
  TGI: > 100 µM
[32]
  GI50: 3.66 µM
  TGI: > 100 µM
[33]
  GI50: 3.32 µM
  TGI: 15.2 µM
[34]
  GI50: 9.95 µM
  TGI: > 100 µM
[35]
  GI50: 1.34 µM
  TGI: 7.45 µM
[52]
  GI50: 2.66 µM
  TGI: 6.78 µM
[36]
  GI50: 4.56 µM
  TGI: > 100 µM
[37]
  GI50: 25.6 µM
  TGI: 56.7 µM
[38]
  GI50: 6.34 µM
  TGI: 94.7 µM
[39]
  GI50: 7.6 µM
  TGI: > 100 µM
[53]
  GI50: 3.72 µM
  TGI: > 100 µM
[40]
  GI50: 5.3 µM
  TGI: > 100 µM
[41]
  GI50: 12.8 µM
  TGI: > 100 µM
[43]
  GI50: 42.3 µM
  TGI: > 100 µM
[54]
  GI50: 6.59 µM
  TGI: 51 µM
[44]
  GI50: 11.5 µM
  TGI: > 100 µM
[45]
  GI50: 4.9 µM
  TGI: 54.8 µM
